In US20200246284A1 (Academia Sinica, priority 2015, published 2020):
Several values for one entry are separate records, joined by “and”; a condition that tells them apart may be missing. Identical values can stand only once. Like-named read-outs stand apart in the source and are kept apart here.

Tests used:
SET2 = assay: Cytotoxicity leukemia; type: cell-based; conditions: Homo sapiens, SET-2; SET2 JAK2-V617 mut
U2932 = conditions: human
Method: (§2) After 72 hours, the cultures were pulsed with Alamar Blue overnight, and the fluorescent intensity of resulted cultures was measured by a Synergy H1 plate-reader (BioTek Inc).

Karpas-422 = conditions: human
Method: as §2

H526 xenografts = assay: SCLC H526 xenograft in NSG mice; type: in vivo, mouse; conditions: 30 mg/kg i.v. every second day; d30
Text: Xenografts of GFP/Luciferase-labeled H526 were established in groups of ten NSG male mice aged 12 wks by subcutaneous injection of 50,000 tumor cells.

SMS-CTR rhabdomyosarcoma = assay: Cytotoxicity sarcoma; type: cell-based; conditions: Homo sapiens; SMS-CTR embryonal type
REC-1 = assay: Combination with BO-1055, MCL (Tables 28, 29); type: cell-based, human; conditions: read-out: IC50 single drug
Mino = assay: Combination with BO-1055, MCL (Tables 28, 29); type: cell-based, human; conditions: read-out: IC50 single drug
[1] = system: lymphoma cell lines (DLBCL GBC and ABC, mantle cell lymphoma); assay: Cytotoxicity, panel of lymphoma cell lines (Tables 23, 24, 26); type: cell-based; conditions: Homo sapiens
Ly19 = assay: cells; conditions: Homo sapiens, read-out: cytotoxicity IC50
Caco-2 permeability = type: in vitro ADME, human; conditions: human, Caco-2, 10 μM
Text: (§1) The Caco-2 permeability assay is considered to be the industry gold standard for in vitro prediction of in vivo human intestinal permeability and bioavailability of orally administered drugs. The Caco-2 permeability assay uses an established method for predicting the absorption of therapeutic compounds across the GIT by measuring the rate of transport across a contiguous Caco-2 cell monolayer. […] The Caco-2 assay measures the passage of a test compound from a donor chamber into an acceptor chamber through a porous membrane on which a confluent Caco-2 monolayer forms a cellular barrier.

Caco-2 cell monolayers = assay: Caco-2 permeability; type: in vitro ADME, human
Text: as §1

LY1 = conditions: human
Method: as §2

NECB1 = assay: Combination with BO-1055, MCL (Tables 28, 29); type: cell-based, human; conditions: read-out: IC50 single drug
Farage = assay: cells; conditions: Homo sapiens, read-out: cytotoxicity IC50
DLBCL (GBC) cell lines = assay: Combination of BO-1055 with PUH71, TT46, bortezomib, doxorubicin (Table 25); type: cell-based; conditions: Homo sapiens
[2] = system: IMR90 fetal lung myofibroblast; assay: Cytotoxicity normal tissue 72 hr; type: cell-based, human
MOR = assay: Cytotoxicity NSCLC; type: cell-based, human
H520 = type: cell-based, human
H60 = assay: Cytotoxicity SCLC 72 hr alamar blue; type: cell-based, human
H1781 = type: cell-based, human
HS578 breast epithelium = assay: Cytotoxicity normal tissue 72 hr; type: cell-based, human
H562 = assay: Cytotoxicity SCLC 72 hr alamar blue; type: cell-based, human
[3] = system: 16HBE SV40+ bronchial epithelium; type: cell-based, human
H1975 = type: cell-based, human
[4] = system: BCI-NSI hTERT bronchial epithelium; assay: Cytotoxicity normal tissue 72 hr; type: cell-based, human; conditions: read-out: IC50
[5] = system: FTE-hTERT Fallopian epithelium; assay: Cytotoxicity normal tissue 72 hr; type: cell-based, human
HCC364 = type: cell-based, human
SK-MES-1 = type: cell-based, human
H82 = assay: Cytotoxicity SCLC 72 hr alamar blue; type: cell-based, human
H2228 = type: cell-based, human
A549 = type: cell-based, human
PC1 (jap) = type: cell-based, human
H678 = assay: Cytotoxicity SCLC 72 hr alamar blue; type: cell-based, human
H524 = assay: Cytotoxicity SCLC 72 hr alamar blue; type: cell-based, human
H1755 = type: cell-based, human
HCC15 = type: cell-based, human
H23 = type: cell-based, human
H889 = assay: Cytotoxicity SCLC 72 hr alamar blue; type: cell-based, human; conditions: read-out: IC50
H1395 = type: cell-based, human
PC9 = type: cell-based, human
CL100T1 = type: cell-based, human

## CN(C)CCNC(=O)c1cccc(NC(=O)Nc2ccc(N(CCCl)CCCl)cc2)c1 [BO-1055, Ureidomustine]
SET2
  IC50: > 10 µM
U2932
  IC50: 2.22 µM
Karpas-422
  IC50: 5.85 µM
H526 xenografts
  tumor-free mice: 3/5
SMS-CTR rhabdomyosarcoma
  IC50: 10 µM
REC-1
  IC50: 17.7 µM and 12.5 µM and 19.3 µM
Mino
  IC50: 0.115 µM and 0.105 µM and 0.101 µM
[1]; lines with WT Bcl2
  IC50: ≥ 0.12 µM
[1]; two resistant lines
  IC50: > 10 µM
Ly19
  IC50: 0.29 µM
Caco-2 permeability
  Papp B→A at 10 μM: 7.05 ×10⁻⁶ cm/s
Caco-2 cell monolayers; 10 μM
  Papp (B to A): Papp (B to A) = 7.5 × 10−6 cm/sec
Caco-2 cell monolayers; A→B and B→A directions
  mass balance: < 50%
Caco-2 cell monolayers; Caco-2
  Papp coefficient A→B: not detected
LY1
  IC50: 3.86 µM
NECB1
  IC50: 7.42 µM and 7.78 µM and 8.52 µM
Farage
  IC50: 0.44 µM
DLBCL (GBC) cell lines; KARPAS-422, read-out: IC50 single agent
  IC50: 5.85 µM
DLBCL (GBC) cell lines; OCI-LY19, read-out: IC50 single agent
  IC50: 0.287 µM
DLBCL (GBC) cell lines; OCI-Ly8, read-out: IC50 single agent
  IC50: 0.224 µM
DLBCL (GBC) cell lines; OCI-Ly18, read-out: IC50 single agent
  IC50: 0.608 µM
DLBCL (GBC) cell lines; SU-DHL-4, read-out: IC50 single agent
  IC50: 1.95 µM
DLBCL (GBC) cell lines; SU-DHL-5, read-out: IC50 single agent
  IC50: 4.14 µM
DLBCL (GBC) cell lines; SU-DHL-6, read-out: IC50 single agent
  IC50: 5.93 µM
DLBCL (GBC) cell lines; Toledo, read-out: IC50 single agent
  IC50: 8.95 µM
DLBCL (GBC) cell lines; read-out: IC50 single agent
  IC50: 3.19 µM

## N.N.[Cl][Pt][Cl] [Cisplatin]
[2]
  IC50: > 100 µM
MOR
  IC50: 3.9 µM
H520
  IC50: 9.1 µM
H60
  IC50: 2.09 µM
H1781
  IC50: 1.67 µM
HS578 breast epithelium
  IC50: > 100 µM
H562
  IC50: 1.39 µM
[3]
  IC50: 3.6 µM
H1975
  IC50: ≥ 10 µM
[4]
  IC50: 30 µM
[5]
  IC50: 100 µM
HCC364
  IC50: ≥ 75 µM
SK-MES-1
  IC50: ≥ 50 µM
H82
  IC50: ≥ 20 µM
H2228
  IC50: ≥ 25 µM
A549
  IC50: ≥ 30 µM
PC1 (jap)
  IC50: ≥ 20 µM
H678
  IC50: 3.81 µM
H524
  IC50: 0.41 µM
H1755
  IC50: ≥ 15 µM
HCC15
  IC50: ≥ 85 µM
H23
  IC50: 2.5 µM
H889
  IC50: 0.41 µM
H1395
  IC50: ≥ 15 µM
PC9
  IC50: 8.12 µM
CL100T1
  IC50: 2.8 µM
